Data set [1] is described as follows: Adverse events in the clinical study. The format is in vivo, healthy Korean volunteers. The settings on record: CYP2C19 PM group; 20 mg oral once daily for 8 days.
The subject of a further data set is gastric acid secretion. The following applies: cited from earlier work.
For data set [2] the following is noted: mean ± SD.

Like-named read-outs stand apart in the source and are kept apart here.

For `COc1ccc2[nH]c([S+]([O-])Cc3ncc(C)c(OC)c3C)nc2c1` (stereo not drawn) [omeprazole, reference compound], the omeprazole-related adverse event entry in data set [1] is “No omeprazole-related adverse event”. In addition, in the data set on gastric acid secretion (drug still effective after a single dose), the “duration of effect after a single dose” value is 24 to 72 h.

Take `COc1c(C)cnc(C[S+]([O-])c2nc3ccc(O)cc3[nH]2)c1C` (stereo not drawn) [5-O-demethylomeprazole]: the “effect on gastric acid secretion” value with gastric acid secretion is reported as “does not have an effect on gastric acid secretion”.

Regarding `COc1ccc2nc(S(=O)(=O)Cc3ncc(C)c(OC)c3C)[nH]c2c1` [omeprazole sulfone], the “Metabolic ratio omeprazole sulfone (AUC0→12hr, omeprazole sulfone/AUC0→12hr, omeprazole)” value in data set [2] (multiple dosing, EM (n = 8)) was 2.04 ± 2.39; in data set [2] (multiple dosing, IM (n = 6)) it was 0.87 ± 0.19; in data set [2] (multiple dosing, PM (n = 8)), 0.90 ± 0.30; in data set [2] (single dosing, EM (n = 8)) it was 0.78 ± 0.17; in data set [2] (single dosing, IM (n = 6)), 2.89 ± 2.63; in data set [2] (single dosing, PM (n = 8)) it was 0.65 ± 0.08.

These data come from article PMC5383603 (Journal of Korean Medical Science, 2017).
